# Reference: US20200237759A1, “DOSAGE REGIME AND METHOD FOR TREATING PULMONARY ARTERIAL HYPERTENSION” (Altavant Sciences GmbH, priority 2019, published 2020)
# Where “and” joins values, the source holds several entries; their conditions need not be identical. Identical values can stand only once.
# Experiments:
# [1] = Part 2 MAD plasma pharmacokinetics, BID oral KAR5585 for 14 days
# Procedure: Food effect was to be evaluated in Part 1, Period 2.
# Part 2 (MAD): BID doses (separated by approximately 12 hours on Days 1 to 13) and a single AM dose on Day 14. One or more of the MAD Cohort could have been dosed once daily (QD).
# Pharmacokinetic data were to be summarized descriptively.
# [2] = Safety and tolerability in healthy adult subjects (Study KAR5585-101); format: in vivo, human
# [3] = 100 mg (Cohort 2) to 400 mg (Cohort 4) BID fed, 4-fold increase in dose
# [4] = 100 mg/dose BID Fasted, Cohort 1, Day 1 AM
# [5] = 100 mg/dose BID Fasted, Cohort 1, Day 14
# [6] = 100 mg/dose BID Fed, Cohort 2, Day 1 AM
# [7] = 100 mg/dose BID Fed, Cohort 2, Day 1 PM
# [8] = 100 mg/dose BID Fed, Cohort 2, Day 7 AM
# [9] = 100 mg/dose BID Fed, Cohort 2, Day 7 PM
# [10] = 100 mg/dose BID Fed, Cohort 2, Day 14
# [11] = 200 mg/dose BID Fed, Cohort 3, Day 1 AM
# [12] = 400 mg/dose BID Fed, Cohort 4, Day 1 AM
# [13] = 400 mg/dose BID Fed, Cohort 4, Day 1 PM
# [14] = 400 mg/dose BID Fed, Cohort 4, Day 7 AM
# [15] = 400 mg/dose BID Fed, Cohort 4, Day 7 PM
# [16] = 400 mg/dose BID Fed, Cohort 4, Day 14 (last block, /D fits 400 mg)
# [17] = Day 7 AM, blank dose cell under 400/Fed Cohort 4, /D fits 200 mg Fed Cohort 3
# [18] = Day 7 AM, blank dose cell under 400/Fed Cohort 4, likely 200 mg Fed Cohort 3
# [19] = Day 7 PM (3rd 7/PM block), blank dose cell under 400/Fed Cohort 4, /D fits 200 mg Fed Cohort 3
# [20] = Day 7 PM, blank dose cell under 400/Fed Cohort 4, /D fits 200 mg Fed Cohort 3
# [21] = Day 14 (first Day 14 block), blank dose cell under 400/Fed Cohort 4, /D fits 200 mg Fed Cohort 3
compound,measurement,setting,value
"CCOC(=O)[C@@H]1CC2(CCN(c3cc(O[C@H](c4ccc(Cl)cc4-c4ccccc4)C(F)(F)F)nc(N)n3)CC2)CN1 [KAR5585, (S)-ethyl 8-(2-amino-6-((R)-1-(5-chloro-[1,1′-biphenyl]-2-yl)-2,2,2-trifluoroethoxy)pyrimidin-4-yl)-2,8-diazaspiro[4.5]decane-3-carboxylate]","increase in mean AUC0-12, Day 1",[1]; [3],5.1 fold
same,"increase in mean AUC0-12, Day 14",[1]; [3],3.1 fold
same,"increase in mean AUC0-24, Day 1",[1]; [3],3.6 fold
same,"increase in mean AUC0-24, Day 14",[1]; [3],3.6 fold and 3.63 fold
same,"increase in mean Cmax, Day 1",[1]; [3],4.4 fold
same,"increase in mean Cmax, Day 14",[1]; [3],~3.0 fold
same,"time to peak plasma concentrations (range), Day 1","[1]; 100 mg KAR5585 BID, Part 2 Cohort 1 (fasted state)",0.75 to 2.0 h
same,"VZ/F, Day 14","[1]; 100 mg KAR5585 BID, fed",3520 L
same,"mean VZ/F, Day 1","[1]; 100 mg KAR5585 BID, fed",4100 L
same,AUC0-12 (Mean),[1]; [4],62.8 ng·h/mL
same,Cmax (Mean),[1]; [4],16.7 ng/mL
same,Vz/F (Mean),[1]; [4],4900 L
same,tmax (Median),[1]; [4],1.5 h
same,AUC0-24 (Mean),[1]; [5],99.8 ng·h/mL
same,C24 (Geo. Mean),[1]; [5],BLQ
same,C24 (Mean),[1]; [5],BLQ
same,Cmax (Mean),[1]; [5],21.3 ng/mL
same,Vz/F (Geo. Mean),[1]; [5],4230 L
same,Vz/F (Mean),[1]; [5],4420 L
same,t1/2 (Mean),[1]; [5],2.49 h
same,tmax (Median),[1]; [5],1.0 h
same,AUC0-12 (Geo. Mean),[1]; [6],51.2 ng·h/mL
same,AUC0-12 (Mean),[1]; [6],55.5 ng·h/mL
same,AUC0-∞ (Geo. Mean),[1]; [6],51.7 ng·h/mL
same,AUC0-∞ (Mean),[1]; [6],55.9 ng·h/mL
same,Cmax (Geo. Mean),[1]; [6],17.7 ng/mL
same,Cmax (Mean),[1]; [6],18.4 ng/mL
same,Vz/F (Geo. Mean),[1]; [6],3830 L
same,Vz/F (Mean),[1]; [6],4100 L
same,t1/2 (Geo. Mean),[1]; [6],1.37 h
same,tmax (Median),[1]; [6],0.75 h
same,AUC0-∞ (Geo. Mean),[1]; [7],152 ng·h/mL
same,Cmax (Geo. Mean),[1]; [7],39.8 ng/mL
same,Cmax (Mean),[1]; [7],44.1 ng/mL
same,Vz/F (Geo. Mean),[1]; [7],1730 L
same,Vz/F (Mean),[1]; [7],1820 L
same,t1/2 (Geo. Mean),[1]; [7],1.82 h
same,tmax (Median),[1]; [7],2.0 h
same,AUC0-12 (Geo. Mean),[1]; [8],127 ng·h/mL
same,AUC0-∞ (Geo. Mean),[1]; [8],137 ng·h/mL
same,Cmax (Geo. Mean),[1]; [8],29.8 ng/mL
same,Cmax (Mean),[1]; [8],31.3 ng/mL
same,Vz/F (Geo. Mean),[1]; [8],3210 L
same,Vz/F (Mean),[1]; [8],3360 L
same,t1/2 (Geo. Mean),[1]; [8],2.82 h
same,tmax (Median),[1]; [8],2.0 h
same,AUC0-12 (Geo. Mean),[1]; [9],142 ng·h/mL
same,AUC0-12 (Mean),[1]; [9],145 ng·h/mL
same,AUC0-24 (Geo. Mean),[1]; [9],278 ng·h/mL
same,AUC0-∞ (Geo. Mean),[1]; [9],168 ng·h/mL
same,Cmax (Mean),[1]; [9],28.4 ng/mL
same,Vz/F (Geo. Mean),[1]; [9],3550 L
same,Vz/F (Mean),[1]; [9],3910 L
same,t1/2 (Mean),[1]; [9],3.80 h
same,tmax (Median),[1]; [9],4.0 h
same,AUC0-12 (Geo. Mean),[1]; [10],114 ng·h/mL
same,AUC0-24 (Geo. Mean),[1]; [10],121 ng·h/mL
same,AUC0-24 (Mean),[1]; [10],122 ng·h/mL
same,AUC0-∞ (Geo. Mean),[1]; [10],121 ng·h/mL
same,C24 (Geo. Mean),[1]; [10],BLQ
same,C24 (Mean),[1]; [10],BLQ
same,Cmax (Geo. Mean),[1]; [10],28.5 ng/mL
same,Cmax (Mean),[1]; [10],30.0 ng/mL
same,Vz/F (Geo. Mean),[1]; [10],3330 L
same,Vz/F (Mean),[1]; [10],3520 L
same,t1/2 (Geo. Mean),[1]; [10],2.64 h
same,t1/2 (Mean),[1]; [10],2.73 h
same,tmax (Median),[1]; [10],1.8 h
same,"VZ/F, Day 14","[1]; 200 mg KAR5585 BID, fed",7010 L
same,"mean VZ/F, Day 1","[1]; 200 mg KAR5585 BID, fed",3220 L
same,Cmax (Mean),[1]; [11],87.8 ng/mL
same,Vz/F (Geo. Mean),[1]; [11],3130 L
same,Vz/F (Mean),[1]; [11],3220 L
same,t1/2 (Geo. Mean),[1]; [11],2.81 h
same,t1/2 (Mean),[1]; [11],2.91 h
same,tmax (Median),[1]; [11],1.5 h
same,"VZ/F, Day 14","[1]; 400 mg KAR5585 BID, fed",10300 L
same,"mean VZ/F, Day 1","[1]; 400 mg KAR5585 BID, fed",6800 L
same,tmax Day 7 evening dose,"[1]; 400 mg KAR5585 BID, fed",6 h
same,AUC0-12 (Geo. Mean),[1]; [12],25.3 ng·h/mL
same,AUC0-12 (Mean),[1]; [12],2.81 ng·h/mL
same,AUC0-∞ (Geo. Mean),[1]; [12],272 ng·h/mL
same,AUC0-∞ (Mean),[1]; [12],305 ng·h/mL
same,Cmax (Mean),[1]; [12],81.8 ng/mL
same,Vz/F (Mean),[1]; [12],6800 L
same,t1/2 (Geo. Mean),[1]; [12],3.00 h
same,tmax (Median),[1]; [12],2.0 h
same,AUC0-∞ (Geo. Mean),[1]; [13],633 ng·h/mL
same,Cmax (Geo. Mean),[1]; [13],1100 ng/mL
same,Vz/F (Geo. Mean),[1]; [13],3820 L
same,Vz/F (Mean),[1]; [13],4030 L
same,t1/2 (Geo. Mean),[1]; [13],4.18 h
same,t1/2 (Mean),[1]; [13],4.33 h
same,tmax (Median),[1]; [13],3.0 h
same,AUC0-12 (Geo. Mean),[1]; [14],473 ng·h/mL
same,AUC0-∞ (Geo. Mean),[1]; [14],577 ng·h/mL
same,Cmax (Geo. Mean),[1]; [14],91.3 ng/mL
same,Vz/F (Geo. Mean),[1]; [14],5680 L
same,Vz/F (Mean),[1]; [14],6220 L
same,t1/2 (Mean),[1]; [14],4.90 h
same,tmax (Median),[1]; [14],2.0 h
same,AUC0-12 (Geo. Mean),[1]; [15],394 ng·h/mL
same,AUC0-∞ (Geo. Mean),[1]; [15],534 ng·h/mL
same,Cmax (Mean),[1]; [15],69.0 ng/mL
same,Vz/F (Geo. Mean),[1]; [15],6770 L
same,Vz/F (Mean),[1]; [15],6950 L
same,tmax (Median),[1]; [15],6.0 h
same,AUC0-12 (Geo. Mean),[1]; [16],359 ng·h/mL
same,AUC0-24 (Geo. Mean),[1]; [16],433 ng·h/mL
same,AUC0-24 (Mean),[1]; [16],444 ng·h/mL
same,AUC0-∞ (Geo. Mean),[1]; [16],465 ng·h/mL
same,Cmax (Geo. Mean),[1]; [16],85.3 ng/mL
same,Cmax (Mean),[1]; [16],89.0 ng/mL
same,Vz/F (Geo. Mean),[1]; [16],9780 L
same,Vz/F (Mean),[1]; [16],10300 L
same,t1/2 (Geo. Mean),[1]; [16],6.08 h
same,t1/2 (Mean),[1]; [16],6.45 h
same,tmax (Median),[1]; [16],1.5 h
same,study day by which steady-state plasma levels were achieved,[1]; BID oral KAR5585 for 14 days,≤ 7 days
same,tmax (Median),[1]; Day 7 AM,3.0 h
same,t1/2 (Geo. Mean),[1]; [17],4.21 h
same,t1/2 (Mean),[1]; [17],4.30 h
same,AUC0-12 (Geo. Mean),[1]; [18],217 ng·h/mL
same,AUC0-12 (Mean),[1]; [18],230 ng·h/mL
same,AUC0-∞ (Geo. Mean),[1]; [18],256 ng·h/mL
same,AUC0-∞ (Mean),[1]; [18],273 ng·h/mL
same,Vz/F (Geo. Mean),[1]; [18],5610 L
same,Vz/F (Mean),[1]; [18],5960 L
same,tmax (Median),[1]; Day 7 PM,6.0 h
same,AUC0-12 (Geo. Mean),[1]; [19],201 ng·h/mL
same,AUC0-24 (Geo. Mean),[1]; [19],414 ng·h/mL
same,AUC0-∞ (Geo. Mean),[1]; [19],289 ng·h/mL
same,AUC0-∞ (Mean),[1]; [19],290 ng·h/mL
same,Vz/F (Geo. Mean),[1]; [19],7000 L
same,Vz/F (Mean),[1]; [19],8710 L
same,AUC0-12 (Geo. Mean),[1]; [20],333 ng·h/mL
same,AUC0-24 (Geo. Mean),[1]; [20],583 ng·h/mL
same,AUC0-∞ (Geo. Mean),[1]; [20],406 ng·h/mL
same,Cmax (Mean),[1]; [20],42.6 ng/mL
same,Vz/F (Geo. Mean),[1]; [20],3010 L
same,Vz/F (Mean),[1]; [20],3120 L
same,AUC0-24 (Geo. Mean),[1]; [21],199 ng·h/mL
same,AUC0-24 (Mean),[1]; [21],212 ng·h/mL
same,C24 (Geo. Mean),[1]; [21],BLQ
same,C24 (Mean),[1]; [21],BLQ
same,Cmax (Geo. Mean),[1]; [21],43.5 ng/mL
same,Cmax (Mean),[1]; [21],48.8 ng/mL
same,Vz/F (Geo. Mean),[1]; [21],6430 L
same,Vz/F (Mean),[1]; [21],7010 L
same,tolerability,"[2]; 400 mg single oral dose under fed conditions, 9 healthy adult subjects",well-tolerated
same,tolerability throughout the trial,"[2]; Part 1 and Part 2, all doses",well tolerated throughout the trial
same,safety and tolerability,"[2]; multiple ascending oral doses 100-400 mg BID up to 14 days, 36 healthy adult subjects",safe and well-tolerated
